# Assay results: PubChem BioAssay (NCI)
#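 Values below derive from 48-hour exposures of cells grown in 96-well plates, with endpoints linearly interpolated between the two concentrations bracketing the appropriate inhibition level. GI50 is the concentration that inhibits growth by half. TGI denotes the concentration required for complete inhibition of growth.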
# What was measured:
# Test in all cases: NCI-60 cell line screen, 48 h
# UO-31 renal = test system: UO-31 renal
# OVCAR-8 ovarian = test system: OVCAR-8 ovarian
# HOP-62 NSCLC = test system: HOP-62 NSCLC
# NCI-H23 lung = test system: NCI-H23 lung
# IGROV1 ovarian = test system: IGROV1 ovarian
# CCRF-CEM leukemia = test system: CCRF-CEM leukemia
# SF-295 CNS = test system: SF-295 CNS
# SF-539 CNS = test system: SF-539 CNS
# M14 melanoma = test system: M14 melanoma
# HS 578T breast = test system: HS 578T breast
Compound,TGI (UO-31 renal),TGI (OVCAR-8 ovarian),TGI (HOP-62 NSCLC),TGI (NCI-H23 lung),TGI (IGROV1 ovarian),TGI (CCRF-CEM leukemia),TGI (SF-295 CNS),TGI (SF-539 CNS),TGI (M14 melanoma),TGI (HS 578T breast),GI50 (UO-31 renal),GI50 (OVCAR-8 ovarian),GI50 (HOP-62 NSCLC),GI50 (M14 melanoma),GI50 (NCI-H23 lung),GI50 (HS 578T breast),GI50 (IGROV1 ovarian),GI50 (CCRF-CEM leukemia),GI50 (SF-295 CNS),GI50 (SF-539 CNS)
COC(=O)[C@]1(c2ccc(N(C)C)cc2OC)C[C@@H]2CCCN(CCc3c1[nH]c1ccccc31)C2,33.2 µM,57.9 µM,> 84.9 µM,> 51.1 µM,48 µM,> 84.3 µM,> 60.7 µM,36.8 µM,–,–,–,–,–,–,–,–,–,–,–,–
CCCOP(=O)(OCCC)OC(C(F)(F)F)C(F)(F)F,> 100 µM,–,> 100 µM,> 100 µM,–,> 100 µM,–,> 100 µM,> 100 µM,> 100 µM,–,–,–,–,–,–,–,–,–,–
COC(=O)CNC(=O)CCC(C)[C@H]1CCC2C3C(C[C@H](OC(C)=O)[C@@]21C)[C@@]1(C)CCC2(C[C@H]1C[C@H]3OC(C)=O)OOC1(CC[C@]3(C)C4C[C@H](OC(C)=O)[C@@]5(C)C(CC[C@@H]5C(C)CCC(=O)NCC(=O)OC)C4[C@H](OC(C)=O)C[C@@H]3C1)OO2 (some centres undefined),1.51 µM,–,1.52 µM,3.66 µM,1.91 µM,1.57 µM,24.7 µM,1.8 µM,7.96 µM,2.37 µM,–,–,–,–,–,–,–,–,–,–
COc1cc2cc(C(=O)N3CC(CCl)c4ccc(N(C)C)cc43)[nH]c2c(OC)c1OC (centres undefined),0.143 µM,–,0.265 µM,0.118 µM,–,0.633 µM,0.726 µM,0.2 µM,0.237 µM,0.758 µM,–,–,–,–,–,–,–,–,–,–
CN1Cc2cc(O)c(O)cc2C(O)C1 (centres undefined),> 100 µM,> 100 µM,> 100 µM,> 100 µM,> 100 µM,> 100 µM,> 100 µM,> 100 µM,> 100 µM,> 100 µM,–,–,–,–,–,–,–,–,–,–
CCOc1ccc(C(C)c2cc3c(cc2OC)OCO3)cc1 (centres undefined),> 100 µM,9.59 µM,23.1 µM,> 100 µM,> 100 µM,–,–,0.631 µM,45 µM,–,–,–,–,–,–,–,–,–,–,–
CC(C)C(=O)/C=C/S/C=C/C(=O)C(C)C,62.7 µM,6.48 µM,86.9 µM,7.57 µM,45.8 µM,–,> 100 µM,60.2 µM,20.2 µM,95.7 µM,–,–,–,–,–,–,–,–,–,–
CC(C(=O)c1ccncc1)c1ccccn1 (centres undefined),> 100 µM,> 100 µM,> 100 µM,> 100 µM,> 100 µM,> 100 µM,> 100 µM,–,> 100 µM,> 100 µM,–,–,–,–,–,–,–,–,–,–
S=c1nc(N/N=C/c2cccs2)c2cn[nH]c2[nH]1,> 100 µM,> 100 µM,69 µM,66.4 µM,75.1 µM,–,41.4 µM,> 100 µM,> 100 µM,> 100 µM,–,–,–,–,–,–,–,–,–,–
O=P(Nc1ccccc1)(Oc1ccccc1)N(CCCl)CCCl (centres undefined),28.2 µM,> 100 µM,> 100 µM,> 100 µM,> 100 µM,> 100 µM,> 100 µM,> 100 µM,> 100 µM,–,–,–,–,–,–,–,–,–,–,–
Cc1ccc(N=Nc2c(O)ccc3cc(S(=O)(=O)O)ccc23)cc1,> 100 µM,> 100 µM,> 100 µM,> 100 µM,> 100 µM,> 100 µM,> 100 µM,> 100 µM,> 100 µM,> 100 µM,–,–,–,–,–,–,–,–,–,–
Cc1cc(OCCOCCC(F)(F)P(=O)(O)O)ccc1CCc1cnc2c(N)nc3cc(CCC(=O)O)ccc3c2c1,> 100 µM,> 100 µM,> 100 µM,> 100 µM,> 100 µM,> 100 µM,> 100 µM,> 100 µM,> 100 µM,> 100 µM,> 100 µM,> 100 µM,> 100 µM,> 100 µM,> 100 µM,26.6 µM,> 100 µM,> 100 µM,> 100 µM,> 100 µM
CCCCCCCCCCCCCC[n+]1ccc(C(N)=O)cc1,24.3 µM,4.48 µM,3.45 µM,15.2 µM,2.91 µM,> 100 µM,5.06 µM,–,–,7.05 µM,7.65 µM,1.68 µM,1.51 µM,–,2.42 µM,2.01 µM,1.05 µM,2.52 µM,1.76 µM,–
COc1cc2c(cc1Oc1c(Oc3c(O)c(OC)cc4c3C(CC(C)C)N(C)CC4)c(OC)cc3c1C(CC(C)C)N(C)CC3)C(CC(C)C)N(C)CC2 (centres undefined),11.9 µM,8.24 µM,3.76 µM,4.91 µM,15.1 µM,6.3 µM,5.04 µM,1.45 µM,–,–,–,–,–,–,–,–,–,–,–,–
C=CC(C)C1(CCCOCc2ccccc2)C(=S)N2CCC3(CC24CCCC14)OCCO3 (centres undefined),> 100 µM,> 100 µM,–,> 100 µM,> 100 µM,> 100 µM,> 100 µM,–,–,–,–,–,–,–,–,–,–,–,–,–
CNC(=O)SCC(NC(=O)CCC(N)C(=O)O)C(=O)NCC(=O)O (centres undefined),> 100 µM,> 100 µM,> 100 µM,> 100 µM,> 100 µM,> 100 µM,> 100 µM,> 100 µM,–,–,–,–,–,–,–,–,–,–,–,–
O=C(O)/C(=C\c1ccc(O)cc1)c1cccc2ccccc12,> 100 µM,> 100 µM,> 100 µM,> 100 µM,> 100 µM,–,> 100 µM,–,> 100 µM,> 100 µM,–,–,–,–,–,–,–,–,–,–
COC1=CC(=O)C=C(OC)C1=O,54.1 µM,32.1 µM,54.3 µM,22.7 µM,31.3 µM,4.88 µM,34.6 µM,37.8 µM,–,–,–,–,–,–,–,–,–,–,–,–
COC1=C(C)C(=O)C2=C(C1=O)C1C3CC4=C(C(=O)C(OC)=C(C)C4=O)C(CNC(=O)C(C)O)N3C(C#N)C(C2)N1C (centres undefined),0.731 µM,1.32 µM,< 0.0282 µM,0.0183 µM,1.07 µM,1.38 µM,0.753 µM,< 0.0117 µM,0.0173 µM,< 0.01 µM,–,–,–,–,–,–,–,–,–,–
